Laboratory results taken from patent US6555692B1, “Preparation and use of bifunctional molecules having DNA sequence binding specificity” (California Institute of Technology, priority 1996, dated 2003).

Tests used:
[1] = tested on: 282 bp EcoRI/PvuII restriction fragment from plasmid pSES9hp (5′-TGGCCA-3′, 5′-TGCGCA-3′, 5′-TGGGGA-3′ sites); test: Affinity cleaving, identification of binding orientation; conditions: 25 mM Tris-acetate, 10 mM NaCl, 100 μM/base pair calf thymus DNA, pH 7.0, 22° C.
Experimental: Affinity cleavage assays (25 mM Tris-acetate, 10 mM NaCl, 100 μM/base pair calf thymus DNA, pH 7.0 and 22° C.) were performed in order to identify the binding orientations of the EDTA analogues of the three hairpin polyamides: ImImPyPy-γ-ImImPyPy-β-Dp-EDTA, ImPyImPy-γ-ImPyImPy-β-Dp-EDTA , and ImImImIm-γ-PyPyPyPy-β-Dp-EDTA.
Depicted in FIG. 17 is a representative affinity cleaving experiment on a 3′-^32P-labeled 282 bp EcoRI/PvuII restriction fragment from plasmid pSES9hp. […] Lane 1, A reaction; lane 2, C reaction; lanes 3-5, 1 μM, 2 μM and 5 μM ImImPyPy-γ-ImImPyPy-β-Dp-EDTA (1-E); lanes 6-8, 1 μM, 2 μM and 5 μM ImPyImPy-γ-ImPyImPy-β-Dp-EDTA (2-E); lanes 9-11, 1 μM, 2 μM and 5 μM ImImImIm-γ-PyPyPyPy-β-Dp-EDTA (3-E); lane 12, intact DNA. All lanes contain 15 kcpm 3′-radiolabeled DNA, 25 mM Tris-acetate buffer (pH 7.0), 10 mM NaCl, and 100 μM/base pair calf thymus DNA. (Right) Affinity cleavage patterns for ImImPyPy-γ-ImImPyPy-β-Dp-EDTA and ImPyImPy-γ-ImPyImPy-β-Dp-EDTA at 1 μM concentration, and ImImImIm-γ-PyPyPyPy-β-Dp-EDTA at 5 μM concentration. Illustration of the 282 bp restriction fragment with the position of the sequence indicated. Bar heights are proportional to the […] at each band. Boxes represent equilibrium binding sites determined by the published model, and only sites that were quantitated by DNase I footprint titrations are boxed.

[2] = tested on: 5′-AACCAAGTACTTGGTA-3′; test: Association constants, recognition of 16 base pairs; format: binding; conditions: Table 10, C3-OH polyamides, match site
[3] = tested on: 5′-AACCAAGTCTTGGTA-3′; test: Association constants, recognition of 15 base pairs; conditions: Table 7, C3-OH polyamides, match site
[4] = tested on: 5′-TGTTAAACA-3′; test: Quantitative DNase I footprint titration; format: binding; conditions: 9 bp site
Source text: To identify a flexible linker amino acid, four polyamides of the formula ImPyPy-X-PyPyPy-Dp where X=Py, G (glycine), β, or γ, respectively, were synthesized and their equilibrium association constants determined for 5′-[…]-3′ (9 base pair) sites. (Trauger, et al. J. Am. Chem. Soc., 118, 6160 (1996).)

[5] = tested on: 5′-AAAAAGACAAAAA-3′; test: Quantitative DNase I footprint titration; format: binding; conditions: 13 bp site
Source text: At least two distinct binding modes are expected to form for the ImPyPy-X-PyPyPy-Dp polyamides described above that bind in an extended conformation. These binding modes as “slipped” and “overlapped”. In the overlapped (9 base pair) binding mode, two ImPyPy-X-PyPyPy-Dp polyamides bind directly opposite one another. The “slipped” (13 base pair) binding mode integrates the 2:1 and 1:1 polyamide-DNA binding motifs at a single site. In this binding mode, the ImPyPy moieties of two ImPyPy-X-PyPyPy-Dp polyamides bind the central 5′-AGACA-3′ sequence in a 2:1 manner as in the ImPyPy homodimer, and the PyPyPy moieties of the polyamides bind to A,T flanking sequences as in the 1:1 complexes of distamycin.

[6] = tested on: 262 bp restriction fragment (EcoRI/FspI) of pBR322; test: DNA alkylation / cleavage reactions; format: biochemical
Experimental: Alkylation was examined on a 262 bp restriction fragment (EcoRI/FspI) of pBR322, radiolabeled on the 3′ end (10,000 cpm/reaction). Polyamide or bromodistamycin were added at appropriate concentrations. Final reaction concentrations were 10 mM sodium phosphate (pH 7.0), 100 μM sonicated calf thymus DNA. The reactions were incubated at 37° C. for 0, 1, 5, 10, 20, and 40 hours. Following incubation, the reactions were ethanol precipitated and dissolved in 10 μl 10 mM sodium phosphate buffer and heated at 90° C. for 15 minutes. Piperidine (40 μl, 1.4 M) was added and the reaction heated again for 15 minutes at 90° C. Piperidine was lyophilized off and the reactions were resuspended in 7 μl 1× TBE/80% formamide loading buffer, denatured by heating at 85° C. for 10 minutes and placed on ice. Reactions were electrophoresed on 8% polyacrylamide gels (5% cross link, 7 M urea) in 1× TBE at 2000V. Gels were dried and exposed to a storage phosphor screen (Molecular Dynamics).

[7] = biological target: nine bp polyamide binding site on restriction fragment from pUC-19; test: Pvu II endonuclease protection assay, association and dissociation rates
Source text: Provided herein is an endonuclease protection assay to measure the rate of polyamide-DNA complex formation. Such an assay may comprise a labeled restriction fragment comprising a polyamide binding site that overlaps a restriction endonuclease cleavage site. Cleavage by the cognate is prevented when the overlapping polyamide binding site is occupied by the polyamide. As a control, a second labeled DNA fragment may be that contains the restriction site, but lacks the overlapping polyamide binding site. The rate of polyamide association with its target binding site may be assessed by incubating the solutions of the polyamide with the labeled target and reference fragments for a sufficient timer period. Using the experimental conditions provided herein, the reference site is nearly completely digested, but protection at the target site is observed and can be correlated with polyamide concentration and the time of equilibration. Similarly, the dissociation rate is analyzed by adding an excess of unlabeled competitor DNA to an equilibrated solution of the labeled DNA fragments and polyamide. Addition of the competitor reduces the concentration of free polyamide to zero. The rate at with polyamide dissociation occurs from the target site on the labeled fragment can be followed by the rate of loss of protection from restriction enzyme digestion as the re-equilibration time is increased.
An engineered, radiolabeled restriction fragment from pUC-19 was prepared in which a nine bp polyamide binding site overlaps by two base pairs with the cleavage site for the restriction endonuclease Pvu II. Cleavage by Pvu II is prevented when the overlapping polyamide binding site is .occupied by the polyamide. As a control, a second radiolabeled DNA fragment was prepared which contains a Pvu II site, but lacks the overlapping polyamide binding site.
The rate of polyamide association with its target binding site was assessed by combining solutions of the polyamide with the radiolabeled target and reference fragments and allowing them to for 5 minutes to 5 hours before initiating a treatment (1-2 minutes) with the enzyme Pvu II. Under the experimental conditions, the reference site is nearly completely digested, but protection at the target site is observed and can be correlated with polyamide concentration and the time of equilibration. Similarly, the dissociation rate is analyzed by adding an excess of unlabeled competitor DNA to an equilibrated solution of the labeled DNA fragments and polyamide. Addition of the competitor reduces the concentration of free polyamide to zero. The rate at with polyamide dissociation occurs from the target site on the labeled fragment can be followed by the rate of loss of protection from Pvu II digestion as the re-equilibration time is increased. The association profile with respect to time for the 9-ring extended hairpin polyamide ImPyPy-γ-ImPyPy-β-PyPyPy-G-Dp binding its cognate 9 base pair match site is shown in FIG. 6.
The extended hairpin dissociation rate has been determined to be kd=3.1±0.2×10^−5 s^−1, this corresponds to a half-time of 6.2 h (10 mM Bis-Tris (pH 7.0), 50 mM NaCl, 5 mM MgCl2, 1 mM mercaptoethanol at 37° C.). Wherein half-time is defined as the time required for 50% of a population of DNA and polyamide to dissociate or associate. The association rate has been determined at ka=1.3±0.8×10^4 M^−1s^−1; this corresponds to a half-time of 3.0 h at 5.0 nM. The determined value for the equilibrium association constant (Keq=6.3±0.8×10^8 M^−1) correlates well with the kinetically determined ratio (ka/kd=4.2±2.6×10^8 M^−1).

[8] = tested on: 5′-AAAAACACA-3′; test: Quantitative DNase I footprint titration
[9] = tested on: 5′-[…]-3′; test: Quantitative DNase I footprinting, pJT-LTR 245 base pair fragment; format: binding, HIV-1
[10] = tested on: 5′-TGTTA-3′; conditions: cited from earlier work
[11] = tested on: 5′-TGTTA-3′; test: Quantitative DNase I footprint titration, equilibrium association constant

Molecule: ImImImIm-γ-PyPyPyPy-β-Dp-EDTA
- binding orientation by affinity cleaving [1]: single orientation

Molecule: CC(=O)Nc1cn(C)c(C(=O)Nc2cn(C)c(C(=O)Nc3cc(C(=O)NCCCC(=O)Nc4cc(C(=O)Nc5cc(C(=O)Nc6cc(C(=O)NCCCO)n(C)c6)n(C)c5)n(C)c4)n(C)c3)n2)n1 [Ac-ImImPy-γ-PyPyPy-C3—OH]
- Ka 5′-AACCAAGTACTTGGTA [2]: 7 × 10^6
- Ka 5′-AACCAAGTCTTGGTA-3′ [3]: 7 × 10^6

Molecule: CN(C)CCCNC(=O)c1cc(NC(=O)c2cc(NC(=O)c3cc(NC(=O)CCNC(=O)c4cc(NC(=O)c5cc(NC(=O)c6nccn6C)cn5C)cn4C)cn3C)cn2C)cn1C [ImPyPy-β-PyPyPy-Dp]
- affinity higher than ImPyPy-Py-PyPyPy-Dp by a factor of [4]: ~10
- Ka ([4]; overlapped binding): 8e+08 M⁻¹
- Ka higher than ImPyPy-Py-PyPyPy-Dp by a factor of [5]: ~85
- association constant Ka ([5]; slipped binding): 5e+09 M⁻¹

Molecule: ImPyImPy-γ-ImPyImPy-β-Dp-EDTA
- binding orientation by affinity cleaving [1]: two equivalent orientations

Molecule: Cn1cc(NC(=O)c2cc(NC(=O)c3cc(NC(=O)CBr)cn3C)cn2C)cc1C(=O)NCCC(=N)N [N-Bromoacetyldistamycin]
- DNA cleavage (alkylation) ([6]; after 10 hours at 37°): comparable amount of cleavage to (+) CC-1065 at 1 hour, but at only one adenine
- DNA cleavage (alkylation) ([6]; reaction time 1 hour at 37° C.): almost no visible cleavage

Molecule: ImImPyPy-γ-ImImPyPy-β-Dp-EDTA
- binding orientation by affinity cleaving [1]: two equivalent orientations

Molecule: CN(C)CCCNC(=O)CNC(=O)c1cc(NC(=O)c2cc(NC(=O)c3cc(NC(=O)CCNC(=O)c4cc(NC(=O)c5cc(NC(=O)c6nc(NC(=O)CCCNC(=O)c7cc(NC(=O)c8cc(NC(=O)c9nccn9C)cn8C)cn7C)cn6C)cn5C)cn4C)cn3C)cn2C)cn1C [ImPyPy-γ-ImPyPy-β-PyPyPy-G-Dp]
- kinetically determined ratio ka/kd [7]: 4.2±2.6×10^8 M^−1
- dissociation rate kd ([7]; 10 mM Bis-Tris (pH 7.0), 50 mM NaCl, 5 mM MgCl2, 1 mM mercaptoethanol at 37° C.): 3.1±0.2×10^−5 s^−1
- association rate ka ([7]; 37° C.): 1.3±0.8×10^4 M^−1s^−1
- dissociation half-time ([7]; 37° C.): 6.2 h
- equilibrium association constant Keq ([7]; 37° C.): 6.3±0.8×10^8 M^−1
- association half-time ([7]; at 5.0 nM): 3.0 h
- increase in affinity relative to six-ring hairpin ImPyPy-γ-ImPyPy-β-Dp [8]: ~400 fold
- Kd ([8]; read-out: concentration at which the target site is bound, 9-bp target site): 0.05 nM

Molecule: Cn1cc(NC(=O)c2cc(NC(=O)c3cc(NC(=O)CCCNC(=O)c4cc(NC(=O)c5nc(NC(=O)c6nc(NC(=O)CCCCCNC(=O)c7cc(NC(=O)c8cc(NC(=O)c9cc(NC(=O)c%10nccn%10C)cn9C)cn8C)cn7C)cn6C)cn5C)cn4C)cn3C)cn2C)cc1C(=O)NCCCO [ImPyPyPy-C6-ImImPy-γ-PyPyPy-C3—OH]
- Ka 5′-AACCAAGTACTTGGTA [2]: < 1e+08 M⁻¹

Molecule: CN(C)CCCNC(=O)CCNC(=O)c1cc(NC(=O)c2cc(NC(=O)CCNC(=O)c3cc(NC(=O)c4nc(NC(=O)CCNC(=O)c5cc(NC(=O)c6nc(NC(=O)CCNC(=O)c7cc(NC(=O)c8nccn8C)cn7C)cn6C)cn5C)cn4C)cn3C)cn2C)cn1C [ImPy-β-ImPy-β-ImPy-β-PyPy-β-Dp]
- lower affinity at other mismatch-sites on the restriction fragment [9]: 10-20 fold
- apparent monomeric association constant Ka ([9]; 16 bp target site, pH 7.0, 24° C., values above 1-2×10^10 M^−1 are a lower limit): 3.5e+10 M⁻¹
- lower affinity at proximal two-base pair mismatch site ([9]; […]): at least 35 fold

Molecule: COc1c(O)c2c(c3cc(C(=O)N4CCc5c4c(O)c(OC)c4[nH]c(C(=O)N6C[C@H]7C[C@@]78C6=CC(=O)c6[nH]cc(C)c68)cc54)[nH]c13)CCN2C(N)=O [(+)CC-1065]
- DNA cleavage (alkylation) ([6]; reaction time 1 hour at 37° C.): intense cleavage at 13 adenines

Molecule: CN(C)CCCNC(=O)c1cc(NC(=O)c2cc(NC(=O)c3cc(NC(=O)CCCNC(=O)c4cc(NC(=O)c5cc(NC(=O)c6nccn6C)cn5C)cn4C)cn3C)cn2C)cn1C [ImPyPy-γ-PyPyPy-Dp, reference compound]
- equilibrium association constant Ka ([10]; 5′-TGTTA-3′ target site, prior art): 8e+07 M⁻¹
- increase in Ka relative to the unlinked three-ring polyamide pair ImPyPy and PyPyPy ([10]; 5′-TGTTA-3′): 300 fold
- apparent first order association constant Ka ([11]; 5′-TGTTA-3′ match site): 8e+07 M⁻¹
- specificity, match site relative to single base pair mismatch site ([11]; 5′-TGTTA-3′ match vs 5′-TGACA-3′ mismatch): 24 fold
